Source: patent US11779597B2, “Method of treating Parkinson's and other neurodegenerative diseases” (Vector Vitale IP LLC, priority 2019, dated 2023)

Experiments:
normal human fibroblasts = test: Metabolic activity of cells (MTT assay); format: cell-based; conditions: 72 hours, control = 100% of living cells
Description: In vitro assessment of the effects of E2+^85Rbe on metabolic activity of normal human fibroblasts (MTT assay).
Proliferative and metabolic activity of cells was determined by the colorimetric method.
The metabolic activity of the cells (i.e., the number of living cells) was assessed by MTT staining.
24 hours after the last reagent, the cells were seeded at a concentration of 1×10^4 cells/well in wells of a 96-well plate in complete DMEM nutrient medium with 10% FBS and […]. The cells were cultured in a humidified atmosphere at 5% CO2 and 37° C. for 24 hours. After 24 hours, various doses of experimental substances were added to the respective wells. The cells were incubated at 37° C. and 5% CO2 for an additional 72 hours.
Upon completion of the incubation with the preparations, the proliferative and metabolic activity of the cells in the experiment was evaluated by the colorimetric method by staining MTT cells:
10 μl of the MTT solution (5 mg/ml of the dye in phosphate-buffered saline) was added to each well of the plate; the plate was incubated in a CO2 incubator at 37° C. for 3 hours. After that, the medium was removed from the wells, and the formed tetraformazan crystals were dissolved in 100 μl of dimethylsulfoxide.
When MTT was used, the results were evaluated using a multi-well spectrophotometer at an excitation wavelength of 540 nm. The percentage of viable cells was calculated by the formula: IR=(A 540(experiment)/A540(control))×100%.

[1] = system: human T-lymphocytes (CD3+); conditions: cited from earlier work
[2] = according to the published data

Compound: Cc1ccc(S(=O)(=O)[N-]c2ccccc2NC(=O)c2ccccc2)cc1.[Rb+] [E2+Rb reference drug]
- Metabolic activity of cells, % (normal human fibroblasts; 2.5 μg/ml): 128.2 ± 8.3%
- Metabolic activity of cells, % (normal human fibroblasts; 5 μg/ml): 103.4 ± 9.3%
- Metabolic activity of cells, % (normal human fibroblasts; 10 μg/ml): 104.6 ± 14.2%
- Metabolic activity of cells, % (normal human fibroblasts; 20 μg/ml): 96.8 ± 9.8%
- Metabolic activity of cells, % (normal human fibroblasts; 38 μg/ml): 98.8 ± 7.1%
- Metabolic activity of cells, % (normal human fibroblasts; 75 μg/ml): 97.7 ± 7.5%
- Metabolic activity of cells, % (normal human fibroblasts; 150 μg/ml): 99.3 ± 3.2%

Compound: [Cl-].[Rb+] [rubidium chloride]
- proliferation of both resting and activated lymphocytes [1, 2]: inhibitory effect

Compound: [Cl-].[Cl-].[Zn+2] [zinc chloride]
- proliferation of unstimulated T-cells [1, 2]: has no effect
- costimulatory effect on T-cell proliferation ([1]; published data): costimulatory effects
